For 89 molecules, inhibition and cell count results are on record in PubChem BioAssay AID1013 (Columbia University Molecular Screening Center, 2008).

Molecules are shown by their SMILES. Calls of active or inactive are those of the source. How the calls were made is not given here.

What is called inhibition is the drop in the measured response relative to a control, in per cent.

The nature of one assay: blockers of VCAM1 upregulation by TNFa – imaging, TNFa stimulus, retest and dose response, confirmation (AID 1013).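 On cell count: compound on cells 1 h before TNFa then 24 h more.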 Particulars: TNFa-stimulated cells, VCAM1 expression imaging; at 2 µM; stronger effect = higher value.
As for `Cc1ccccc1-c1nc(CN2CCC(C(=O)NCCCN3CC(C)CC(C)C3)CC2)c(C)o1` (centres undefined), the inhibition was 21.3% (inactive).
For `CCOC(=O)c1cnc(-n2nc(C)cc2C)nc1NCc1ccccc1`, the inhibition is 7.9% (inactive).
As for `CCOC(=O)c1cnn(-c2nc(-c3ccc(C)cc3)cs2)c1C(F)(F)F`, the inhibition is 8.3% (inactive).
Take `COc1cc2[nH]cc(C(=O)NCCc3ccccc3)c(=O)c2cc1OC`: the inhibition is -5.6% (inactive).
On to `CCOC(=O)N1CCC(NC(=O)c2ccc(CS(=O)(=O)c3ccc(OC)cc3)o2)CC1`, for which the inhibition was -7.8% (inactive).
The same measure, in the same setting: under `Cc1cc(C)cc(OCc2nnc(SCC(=O)N3CCN(c4ccccc4)CC3)o2)c1` stands -2% (inactive).
With `O=C1N2CCSC2=NC1(Nc1ccccn1)C(F)(F)F` (centres undefined), the inhibition is 5.4% (inactive).
As to `Cc1nc2sc(C(c3ccc(Cl)cc3)N3CC(C)OC(C)C3)c(O)n2n1` (centres undefined), the inhibition was -3% (inactive).
Take `O=S(=O)(Nc1ccc(-n2cccc2)cc1)c1ccccc1`: the inhibition is 11.9% (inactive).
Consider `COc1ccc(-c2nc(C#N)c(NCCCN(C)C)o2)cc1OC`, for which the inhibition is -0.1% (inactive).
On to `O=S(=O)(c1cccc(-n2cnnn2)c1)N1CCOCC1`, for which the inhibition is -4.6% (inactive).
In the case of `COc1ccc(-c2nc(-c3ccc(NC(=O)c4ccc(Br)o4)cc3)no2)cc1OC`, the inhibition is 11.9% (inactive).
For the molecule `COCCCNC(=O)c1cn(C)c(=O)c2cc(OC)c(OC)cc12`, the inhibition is 4.1% (inactive).
On the same count and under the same terms, under `CC(C)(C)NC(=O)CSc1nsc(SCC(=O)NC(C)(C)C)c1C#N` stands 1.8% (inactive); under `CCOC(=O)C1=C(c2ccccc2)OC(N)=C(C#N)C1c1ccco1` (centres undefined), 13.3% (inactive); under `CCOC(=O)Cc1csc(SCC(=O)/C(C#N)=C(\C)N)n1`, 3.4% (inactive).
Regarding `CC1CCCN(c2nc3ccsc3c(=O)s2)C1` (centres undefined), the inhibition was -1.5% (inactive).
With `CC(C)(C)SCCNC(=O)CN(c1ccc(F)cc1)S(C)(=O)=O`, the inhibition is -12.2% (inactive).
In the case of `CCOc1ccc(C=O)cc1CN1CCCCC1`, the inhibition was 1.5% (inactive).
Regarding `CC(N)Cc1ccccc1Sc1ccc(O)cc1` (centres undefined), the inhibition is -14.6% (inactive).
As for `CCOc1ccc(-n2c(SCC(=O)Nc3ccc(OC)cc3)nc3c(c2=O)SCC3)cc1`, the inhibition was -17% (inactive).
Regarding `C=CCn1c(SCC(=O)Nc2ccc(C(=O)OCC)cc2)nnc1-c1sc(N)nc1C`, the inhibition is 9.5% (inactive).
For `NC(=S)N/N=C/c1ccc(-c2cc(Cl)ccc2Cl)o1`, the inhibition is 34.6% (inactive).
On the same count and under the same terms, next, `O=C(Cn1ncc2c(=O)oc3ccccc3c21)NCCC1=CCCCC1`: -1.9% (inactive); `CC(C)c1nnc(NC(=O)CCC(=O)N2CCN(C3CCCCC3)CC2)s1`: 2.9% (inactive); `Cc1nc(SCc2ccc(Br)cc2)[nH]c(=O)c1C`: 5.1% (inactive).
Same read-out and setting: next, `CCCn1c(SCC(=O)NCc2ccco2)nnc1C(C)C`: -9.8% (inactive); `O=C(O)c1cc2nc3c(c(C(F)(F)F)n2n1)CCc1ccccc1-3`: 4.4% (inactive); `O=C1CC(c2cc(Br)ccc2F)c2cc3c(cc2N1)CCC3` (centres undefined): 24.3% (inactive).
On to `O=C(O)c1ccccc1Nc1ccccc1C(=O)O`, for which the inhibition is 0.6% (inactive).
On to `Cc1ccc(-c2nc(NC(=O)c3nn(C)cc3[N+](=O)[O-])sc2C)cc1`, for which the inhibition is 91.2% (inactive).
For the molecule `O=S(=O)(c1cccs1)N1CCN(CC(O)COc2cccc(Br)c2)CC1` (centres undefined), the inhibition is 4.8% (inactive).
In the case of `COc1ccc(/C=N/NC(=O)c2ccccc2Cl)cc1CSc1nc2ccccc2s1`, the inhibition is 13.7% (inactive).
For `Cc1cc(NC(=O)C2C3C=CC(C3)C2C(=O)O)no1` (centres undefined), the inhibition was -1.8% (inactive).
For `O=C(COC(=O)C1(c2ccccc2F)CCCC1)NC1CCS(=O)(=O)C1` (centres undefined), the inhibition was -6.3% (inactive).
The same measure, in the same setting: under `CCc1nc2oc3ccccc3c(=O)c2c(=O)n1CCOC` stands -0.1% (inactive); under `COc1ccc(C(C)(C)C)cc1S(=O)(=O)N1CCN(C)CC1`, -3.3% (inactive); under `COc1cc(/C=N/NC(=O)Nc2ccccc2)ccc1OCCOc1ccccc1C`, 33.1% (inactive).
As for `CCCc1sc(N/N=C/c2ccccn2)nc1-c1ccc(Br)cc1`, the inhibition was 7.8% (inactive).
`CSc1ccc(CNC2CN3CCC2CC3)cc1` (centres undefined): the inhibition is 6.9% (inactive).
Turning to `CCCNS(=O)(=O)c1ccc2c(c1)CCCN2C(C)=O`, the inhibition was -18.5% (inactive).
Take `CC(=O)Nc1nc2cc3c(cc2s1)OCO3`: the inhibition was -1.4% (inactive).
Take `Cc1csc(NC(=O)CSc2nnc(-c3ccc(S(=O)(=O)N4CCCC4)cc3)o2)n1`: the inhibition is 12.9% (inactive).
Still for that read-out and setting: next, `Nc1nnc(SCC(=O)NCc2ccc3c(c2)OCO3)s1`: 0.2% (inactive).
Same read-out and setting: next, `NC1=CC(=O)c2cccc3cccc1c23`: 6.1% (inactive); `CSC1=NCCN1C(=O)Cc1ccc(Cl)cc1`: -11.8% (inactive); `O=C(Oc1csc(=S)n1C(=O)c1ccccc1)c1ccccc1`: 4% (inactive).
For the molecule `CCn1c(SCC(=O)Nc2cc(C)on2)nnc1-c1ccccc1`, the inhibition was -7.4% (inactive).
Still for that read-out and setting: under `N#Cc1nc(-c2ccco2)oc1N1CCOCC1` stands -13.5% (inactive).
`CC(NC(=O)COC(=O)Cc1ccsc1)C1CC2CCC1C2` (centres undefined): the inhibition is 3.4% (inactive).
`COc1ccc(CC(=O)Nc2ccc(-c3noc(-c4cccc(OC)c4)n3)cc2)cc1`: the inhibition is 5.5% (inactive).
Consider `CCCCSc1nc(C)cc(SCC(=O)N/N=C/c2cccc(OC)c2O)n1`, for which the inhibition was 22.8% (inactive).
Take `OCCCCNc1cccc2ccccc12`: the inhibition is -3.2% (inactive).
In the case of `Cc1n[nH]c(=O)nc1NCc1ccccc1`, the inhibition was -9.9% (inactive).
Regarding `O=C(CN1CCN(c2nc(-c3ccc(F)cc3)cs2)CC1)Nc1ccc2c(c1)OCO2`, the inhibition was 16.2% (inactive).
As for `CCCOC(=O)CSC1=C(C#N)C(c2ccccc2OC)C(C#N)C(=O)N1` (centres undefined), the inhibition is -11.7% (inactive).
Take `Cc1cccc(OCCN2CSC(=S)N(C)C2)c1`: the inhibition was -5.7% (inactive).
In the case of `CCOc1ccc2ccccc2c1/C=N/n1cncn1`, the inhibition is 2.4% (inactive).
The same measure, in the same setting: next, `Cc1cccnc1N(C(=O)Nc1ccccc1)C1=NCC(C)(C)S1`: -11.8% (inactive); `COc1ccc(C(c2sc3ncnn3c2O)N2CC(C)OC(C)C2)cc1OC` (centres undefined): 14.8% (inactive); `O=C(NCc1ccco1)c1ccc(CS(=O)(=O)Cc2ccc(Cl)cc2)o1`: -2.1% (inactive).
The same measure, in the same setting: next, `C(=N\Nc1nc2ccccc2s1)/c1cccs1`: 5.1% (inactive); `O=C(Cn1cccc1C(=O)c1ccccc1)NCCN1CCOCC1`: -13.5% (inactive).
Take `CCOc1ccc(C(=O)C(c2ccccc2)N2CCOCC2)cc1` (centres undefined): the inhibition is -17.7% (inactive).
Still for that read-out and setting: next, `COc1cccc(C(=O)Nc2cccc(-c3nc4ncccc4o3)c2C)c1`: 2.2% (inactive); `Cc1cc(C(=O)NN)c2cc(Br)ccc2n1`: -7.2% (inactive); `Cn1c(SCC(=O)NC2CCCCC2)nnc1-c1cccc(N)c1`: 4.3% (inactive).
Still for that read-out and setting: under `COc1ccc(Oc2cc(NC(=O)c3nn(C)cc3[N+](=O)[O-])cc([N+](=O)[O-])c2)cc1` stands 74.7% (inactive); under `COc1ccc(S(=O)(=O)N2CCCC2C(=O)Nc2ccc(C)cc2)cc1` (centres undefined), -4% (inactive); under `Cc1cccnc1Nc1nc(-c2ccccn2)cs1`, -2.3% (inactive).
Take `Cc1ccc(-c2nn(C(C)(C)C)c3ncnc(N)c23)cc1`: the inhibition is -0.9% (inactive).
Regarding `C=C(C)c1cccc(C(C)(C)NC(=O)Nc2ncccn2)c1`, the inhibition is -2.7% (inactive).
Consider `CCN1CCN(Cc2c(C)[nH]c3ccc(C(=O)OC)cc3c2=O)CC1`, for which the inhibition is 8.5% (inactive).
Turning to `O=C1CC(N2CCN(Cc3ccc4c(c3)OCO4)CC2)C(=O)N1c1ccccc1` (centres undefined), the inhibition is -11.2% (inactive).
Consider `CC/C(=N\NC(=O)CNC(=O)/C=C/c1ccco1)c1ccccc1`, for which the inhibition is -3.4% (inactive).
On to `COc1cccc(OC)c1NC(=O)CN1CCC(NC(=O)c2cccc(F)c2)CC1`, for which the inhibition is 6.5% (inactive).
With `Cc1cccc(NC(=O)CC2SC(=O)N(c3ccccc3)C2=O)c1` (centres undefined), the inhibition was 3.9% (inactive).
Consider `FC(F)(F)c1cc(-c2ccc3c(c2)OCO3)nc(NCc2ccco2)n1`, for which the inhibition is 16.2% (inactive).
On the same count and under the same terms, next, `Cc1cccc(N=C2NC(=O)CS2)c1C`: -7.6% (inactive); `COc1ccccc1N(C)S(=O)(=O)c1ccc(C(=O)NCC(C)C)cc1`: -6.5% (inactive).
Consider `N=c1nc(N)nc2n1NC(c1ccc(F)cc1)=CS2`, for which the inhibition was -1.2% (inactive).
`COc1ccc(-c2nnc(SCC(=O)NC3CCCCC3)o2)cc1OC`: the inhibition is -4.1% (inactive).
As for `COc1ccc(C)cc1S(=O)(=O)Nc1cccc(SC)c1`, the inhibition was 3.5% (inactive).
`CC1=C(C#N)C(Nc2cccc(C)n2)(C(F)(F)F)C(=O)N1` (centres undefined): the inhibition was -1% (inactive).
For `CCOC(=O)N1CCN(C(=O)COc2ccc(Cl)cc2C)CC1`, the inhibition is 5.2% (inactive).
With `COc1ccc(OC)c2sc(NC(=O)CCS(=O)(=O)c3ccccc3)nc12`, the inhibition is 23% (inactive).
For the molecule `O=C(COc1ccccc1-c1ccccc1)N/N=C/c1cccc2ccccc12`, the inhibition is 76.4% (inactive).
As for `COc1ccc(S(=O)(=O)Nc2nc3n(n2)C(c2ccc(Cl)cc2)CC(=O)N3)cc1` (centres undefined), the inhibition was -17.4% (inactive).
In the case of `COc1cccc(CSc2nc3ccccc3cc2C=O)c1`, the inhibition was 43.3% (inactive).

Staying with this assay, now noted: TNFa-stimulated cells, VCAM1 expression imaging; cell count; at 10 µM; stronger effect = lower value.
On to `NC(=S)N/N=C/c1ccc(-c2cc(Cl)ccc2Cl)o1`, for which the cell count worked out at 90.8%.
In the case of `Cc1ccc(-c2nc(NC(=O)c3nn(C)cc3[N+](=O)[O-])sc2C)cc1`, the cell count stood at 113%.
For `COc1ccc(Oc2cc(NC(=O)c3nn(C)cc3[N+](=O)[O-])cc([N+](=O)[O-])c2)cc1`, the cell count was 114%.
On the same count and under the same terms, under `O=C(COc1ccccc1-c1ccccc1)N/N=C/c1cccc2ccccc12` stands 87.5%.
Still for that read-out and setting: next, `COc1cccc(CSc2nc3ccccc3cc2C=O)c1`: 91.7%.
